# Key:
# [1] = system: hippocampal slices; assay: spontaneous interictal-like bursts in hippocampal slices; format: cell-based, rat
# [2] = system: acute rat hippocampal slice; assay: stimulation-evoked afterdischarge, extracellular field recordings in hippocampal slice; format: cell-based
# Method: Sprague-Dawley rats (male and female; 25 to 35 days old) were prepared as described in Aghajanian, A. K. and Rasmussen, K., Synapse 31:331, 1989; and Buckmaster, P. S., Strowbridge, B. W., Schwartzdroin, P. A., J. Neurophysiol. 70:1281, 1993. In most hippocampal slice experiments, simultaneous extracellular field electrode recordings were obtained from CA1 and CA3 areas. For stimulation-evoked afterdischarge (13 slices, 8 animals), the concentration of Mg^2+ in the bathing medium was reduced to 0.9 mM. A bipolar tungsten stimulating electrode was placed on the Schaffer collaterals to evoke synaptically driven field responses in CA1; stimuli consisted to 100 to 300-μs-duration pulses at an intensity of four times population-spike threshold. Afterdischarges were evoked by a 2-s train of such stimuli delivered at 60 Hz. […] In all treatments, perfusion with furosemide-containing medium was begun after a consistent level of bursting had been established.
# FIG. 2A1 illustrates that two seconds of electrical stimulation at 60 Hz elicited afterdischarge activity. […] The color bar indicates increasing magnitude of activity-evoked optical changes from the bottom to the top of the bar. The region of maximum optical change (red, yellow) corresponds to the apical and basal dendritic regions of CA1 on either side of the stimulating electrode. FIGS. 2B1-2BC illustrate responses to electrical stimulation following 20 minutes of perfusion with medium containing 2.5 mM furosemide.
# [3] = system: acute rat hippocampal slice; assay: imaging of intrinsic optical signals in hippocampal slice; format: cell-based
# Text: For imaging of intrinsic optical signals, the tissue was illuminated with a beam of white light (tungsten filament light and lens system; Dedotec USA, Lodi, N.J.) directed through the microscope condenser. The light was controlled and regulated (power supply: Lambda Electronics, Melville, N.Y.) to minimize fluctuations and filtered (695 nm long-pass) so that the slice was transilluminated with long wavelengths (red). Image frames were acquired with a charge-coupled device camera (Dage-MTI) at 30 Hz and were digitized at 8 bits with a spatial resolution of 512 by 480 pixels by means of an Imaging Technology Series 151 imaging system; gains and offsets of the camera-control box and the analog-to-digital board were adjusted to optimize the sensitivity of the system. […] To increase signal-to-noise ratio, an averaged image was composed from 16 individual image-frames, integrated over 0.5 s and averaged together. […] Pseudocolored images were calculated by subtracting the first control image from subsequently acquired images and assigned a color lookup table to the pixel values. For these images, usually a linear low-pass filter was used to remove high-frequency noise and a linear-histogram stretch was used to map the pixel values over the dynamic range of the system. All operations on these images were linear so that quantitative information was preserved. […]
# [4] = following treatment with furosemide, FIG. 3E
smiles,measurement,setting,value
Nc1ccncc1 [4-AP],"spontaneous interictal-like bursts, average","[1]; 200 to 300 μM 4-AP in bathing medium, 4 slices, 2 animals",33 burst/min
NS(=O)(=O)c1cc(C(=O)O)c(NCc2ccco2)cc1Cl [furosemide],electrical afterdischarge activity,"[2]; 20 minutes of perfusion with medium containing 2.5 mM furosemide, 2 s stimulation at 60 Hz, FIG. 2B2",blocked
same,field response to the test pulse,"[2]; 20 minutes of perfusion with medium containing 2.5 mM furosemide, FIG. 2B1",hyperexcitable field response (multiple population spikes)
same,reversibility of the effect after washout,"[2]; following 45 minutes of perfusion with normal bathing medium, FIGS. 2C1-2C3",restoration of the initial response pattern
same,epileptiform activity during electrical stimulation,[2]; [4],blocks
same,stimulation-evoked optical changes,"[3]; 20 minutes of perfusion with medium containing 2.5 mM furosemide, FIG. 2BC",blocked
same,intrinsic optical signal (peak optical change during electrical stimulation),[3]; [4],blocks
[K+] [K^+],"spontaneous interictal-like bursts, average","[1]; 10 mM K+ in bathing medium, 6 slices, 4 animals",81 bursts/min

# — patent US6834238B1, “Method for identifying optical contrast enhancing agents” (Cytoscan Sciences LLC, priority 1998, dated 2004)
